Consider 9 compounds from US20260232636A1, “INHIBITORS OF LRRK2” (Vanderbilt University, priority 2023, published 2026).

The target in assay [1] is T1, LRRK2 WT (Homo sapiens, UniProt Q5S007). The assay can be described thus: Cellular phospho-LRRK2 S935 HTRF assay, WT-HEK293 cells. The note with it: pS935 LRRK2 Cellular Activity Assay; HEK293 cells stably expressing human LRRK2 WT, 2 hr incubation. Type of assay: cell-based. The text has this:
This method utilizes two antibodies, europium-Cryptate (donor) antibody and d2-Cryptate (acceptor) antibody, specifically binding to total and phospho S935 of LRRK2, respectively. When two fluorophores are in close proximity, i.e. activation of kinase, time-resolved fluorescence energy transfer (TR-FRET) occurs where a light source excites europium donor, the 615 nm emission by europium then excites d2 acceptor. […] All cell culture reagents were purchased from Life Technologies, and phospho-LRRK2 S935 assay reagents were from Perkin Elmer (#6FLRKPEH). Briefly, the day before the assay, the cells (5,000 cells/20 μL/well) are prepared in the plating medium (growth medium without G418). […] The activities of inhibitors at WT and GS mutant are measured in separate cell plates.
For full enzyme control and maximum enzyme inhibition wells, 600 nL of DMSO and 0.2 mM MLi-2 were transferred, respectively. The final 2× compound plate is prepared by adding 60 μL of plating medium to each well. […] Compounds are incubated for 2 hrs in 37° C. humidified incubators.
During compound incubation, 4× lysis buffer and 100× blocking buffer are diluted to 1× with H2O. After 2 hr incubation, treatment medium is removed using an ELx405 Microplate washer (Agilent), and 16 μL of lysis/blocking buffer is immediately added to each well in entire plates. The plates are sealed with a plate seal, and placed on a plate shaker for 30 min at room temperature with shaking at 200 rpm.
During the lysis step, 1× antibody working solutions are prepared by diluting 40× Eu-Cryptate antibody and d2-antibody in detection buffer. After the cell plates are spun at 100×g for 1 min, 4 μL of antibody solutions is added to each well in entire plates. The plates are sealed with a plate seal, and placed on a plate shaker for 4 hrs at room temperature with shaking at 200 rpm.
(In TR-FRET formats the signal depends on donor and acceptor labels being close together.)

For assay [2], the target named is T1, LRRK2 WT. Nature of the assay: Biochemical LRRK2 LanthaScreen TR-FRET kinase assay, wild type.
Method: The in-vitro LRRK2 wild type (WT) and G2019S (GS) mutant enzyme activities are assessed for their abilities to phosphorylate a peptide substrate using the LanthaScreen™ (Thermo Fisher) Time-Resolved Fluorescence Energy Transfer (TR-FRET) kinase assay format. The kinase reaction is composed of purified human LRRK2 WT or GS enzymes, a fluorescein labelled peptide substrate (LRRKtide), and ATP. Subsequently, the resulting phosphorylated LRRKtide is recognized by a Terbium-labelled antibody that specifically binds only to the phosphorylated form of LRRKtide. […] In detail, when the phosphorylated LRRKtide is bound to the Terbium (donor) labelled antibody, the FRET signal measured with a 495 nm filter specific to Terbium induces the excitation of the fluorescein (acceptor) of the phosphorylated LRRKtide. Then, this leads to the FRET emission signal measured with a 520 nm filter specific to fluorescein.
The newly synthesized LRRK2 inhibitors are evaluated for their abilities to block phosphorylation of the LRRKtide substrate by WT and GS mutant enzymes. The level of phosphorylation inhibition is proportional to the level of FRET ratio decrease. […] Each assay plate also includes 3 reference controls; (1) full kinase activity control wells containing 1% DMSO vehicle, (2) maximum kinase inhibition control wells containing 1 μM MLi-2, well-known LRRK2 inhibitor, and (3) no enzyme control wells serving as assay background level that should match to the maximum enzyme inhibition level by a 1 M MLi-2 control.
Inhibitors (1 mM stock solution in DMSO) are serially diluted 1:4 into 11 point concentration response curves in DMSO using the Bravo Liquid Handler (Agilent). […] Therefore, the final concentration of 11 point dose response curves of inhibitors ranges from 10 μM to 0.01 nM. For both full enzyme control and no enzyme control wells, 100 nL DMSO is added. For maximum enzyme inhibition wells, 100 nL of 0.1 mM MLi-2 is added.
Next, LRRK2 enzymes, substrate, and ATP are diluted as 2× in 1× kinase buffer (50 mM Tris, pH 8.5, 5 mM MgCl2, 1 mM EGTA, 0.01% BRIJ-35, 2 mM DTT). First, the purified human LRRK2 enzymes are diluted to 6 nM (2×) in a 5 μL volume per well. After adding the WT proteins (Thermo Fisher, cat #PR8604B) and GS mutant proteins (Thermo Fisher, cat #PR8764C) to separate assay plates containing inhibitors/DMSO, the plates are spun down at 100×g for 1 min and placed on a plate shaker with gentle shaking at 50 rpm to incubate enzyme with inhibitors/DMSO at 25° C. for 15 min. The kinase buffer alone (5 μL/well) is added to the no enzyme control wells. Secondly, LRRKtide substrate (Thermo Fisher #PV4901) and ATP (Thermo Fisher #PV3227) are diluted to 2× (0.4 M and 50 μM, respectively) in a 5 μL volume per well. Immediately after the 15 min enzyme incubation, 5 μL of LRRKtide and ATP mixtures are added to entire plates. The plates are spun down at 100×g for 1 min, and covered with a black lid to protect from light. Kinase reaction is allowed at 25° C. for 120 mins with gentle shaking at 50 rpm.
The kinase reaction is immediately stopped by adding 10 μL of 2× TR-FRET detection solution to entire plates. The plates were spun down at 100×g for 1 min, and covered with a black lid to protect from light. The TR-FRET detection reaction was allowed at 25° C. for 30 mins with gentle shaking at 50 rpm.
All ratio data are then normalized to % enzyme activity. Curve fitting and potencies (IC50) of the inhibitors are determined using a four-parameter logistical equation using GraphPad Prism (La Jolla, CA).

T1 sequence (Q5S007 whole entry): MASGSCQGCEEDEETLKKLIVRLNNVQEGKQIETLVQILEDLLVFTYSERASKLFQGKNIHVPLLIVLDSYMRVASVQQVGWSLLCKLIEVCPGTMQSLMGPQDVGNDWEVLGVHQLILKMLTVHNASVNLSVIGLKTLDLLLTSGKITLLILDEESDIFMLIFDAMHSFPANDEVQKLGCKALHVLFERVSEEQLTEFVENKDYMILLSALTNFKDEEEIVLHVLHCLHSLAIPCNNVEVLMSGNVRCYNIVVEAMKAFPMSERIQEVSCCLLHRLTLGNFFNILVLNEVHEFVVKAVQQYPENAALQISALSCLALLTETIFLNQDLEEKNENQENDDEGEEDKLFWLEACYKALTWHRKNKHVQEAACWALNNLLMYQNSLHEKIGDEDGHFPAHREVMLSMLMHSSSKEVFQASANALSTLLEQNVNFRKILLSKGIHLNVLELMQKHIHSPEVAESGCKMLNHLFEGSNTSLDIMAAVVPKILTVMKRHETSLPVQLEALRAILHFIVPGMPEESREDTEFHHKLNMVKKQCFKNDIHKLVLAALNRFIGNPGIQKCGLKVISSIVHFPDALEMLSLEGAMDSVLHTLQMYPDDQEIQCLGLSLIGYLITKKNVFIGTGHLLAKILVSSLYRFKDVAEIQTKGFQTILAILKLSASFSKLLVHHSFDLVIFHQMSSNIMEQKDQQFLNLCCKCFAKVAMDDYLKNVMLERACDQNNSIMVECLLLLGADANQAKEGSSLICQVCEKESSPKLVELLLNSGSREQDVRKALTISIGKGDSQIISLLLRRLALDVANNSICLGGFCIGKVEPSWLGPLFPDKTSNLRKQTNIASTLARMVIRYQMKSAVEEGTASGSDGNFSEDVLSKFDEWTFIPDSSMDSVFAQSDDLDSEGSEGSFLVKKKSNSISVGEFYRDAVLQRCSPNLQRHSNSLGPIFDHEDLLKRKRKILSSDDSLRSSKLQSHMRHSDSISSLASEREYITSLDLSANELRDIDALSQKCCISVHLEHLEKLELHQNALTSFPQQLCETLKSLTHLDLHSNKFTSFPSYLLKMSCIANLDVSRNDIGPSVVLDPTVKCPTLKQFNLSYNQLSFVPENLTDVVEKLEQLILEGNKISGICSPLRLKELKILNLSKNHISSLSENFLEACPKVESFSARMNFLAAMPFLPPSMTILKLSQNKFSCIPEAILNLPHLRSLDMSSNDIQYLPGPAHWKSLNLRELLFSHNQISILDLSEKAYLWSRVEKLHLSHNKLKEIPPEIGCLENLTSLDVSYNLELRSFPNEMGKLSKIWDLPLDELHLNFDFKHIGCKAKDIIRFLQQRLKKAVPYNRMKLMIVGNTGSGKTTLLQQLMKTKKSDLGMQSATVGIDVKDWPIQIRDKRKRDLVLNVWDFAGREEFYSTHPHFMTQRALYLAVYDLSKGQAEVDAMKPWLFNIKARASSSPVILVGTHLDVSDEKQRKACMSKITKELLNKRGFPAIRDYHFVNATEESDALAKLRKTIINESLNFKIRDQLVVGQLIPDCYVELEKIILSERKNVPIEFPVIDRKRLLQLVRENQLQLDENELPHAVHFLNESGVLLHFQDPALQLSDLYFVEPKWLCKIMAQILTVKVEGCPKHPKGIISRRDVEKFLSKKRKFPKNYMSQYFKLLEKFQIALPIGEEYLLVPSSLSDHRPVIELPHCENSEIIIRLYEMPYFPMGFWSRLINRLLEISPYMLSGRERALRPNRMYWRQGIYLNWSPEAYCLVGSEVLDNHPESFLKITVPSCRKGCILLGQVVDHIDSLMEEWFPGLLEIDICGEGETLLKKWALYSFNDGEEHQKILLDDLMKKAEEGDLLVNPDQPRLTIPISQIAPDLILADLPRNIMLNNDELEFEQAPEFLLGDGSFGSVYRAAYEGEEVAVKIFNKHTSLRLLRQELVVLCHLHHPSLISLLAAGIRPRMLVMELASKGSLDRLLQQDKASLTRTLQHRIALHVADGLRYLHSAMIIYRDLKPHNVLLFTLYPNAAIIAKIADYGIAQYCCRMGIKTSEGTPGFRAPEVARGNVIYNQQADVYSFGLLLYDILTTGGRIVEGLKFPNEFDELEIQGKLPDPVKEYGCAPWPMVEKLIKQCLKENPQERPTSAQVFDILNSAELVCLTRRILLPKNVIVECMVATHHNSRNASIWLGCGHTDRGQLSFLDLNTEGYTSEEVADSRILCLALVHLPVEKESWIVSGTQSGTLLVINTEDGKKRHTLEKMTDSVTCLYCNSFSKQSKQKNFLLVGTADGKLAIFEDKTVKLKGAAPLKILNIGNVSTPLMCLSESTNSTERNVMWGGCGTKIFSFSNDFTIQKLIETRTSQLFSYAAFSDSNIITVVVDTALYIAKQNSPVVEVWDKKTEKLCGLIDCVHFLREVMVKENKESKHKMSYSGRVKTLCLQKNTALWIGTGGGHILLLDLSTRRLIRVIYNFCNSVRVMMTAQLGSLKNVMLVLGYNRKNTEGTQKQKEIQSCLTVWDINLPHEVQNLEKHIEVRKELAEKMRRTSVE

For the compound `Cc1cc2cnn(-c3cnn(C)c3)c2cc1[C@H]1C[C@@H]2CN(C3CCCOC3)C[C@@H]2C1` (mixture of isomers) [Compound 11, (rac)-5-methyl-1-(1-methyl-1H-pyrazol-4-yl)-6-((3aR,5s,6aS)-2-(tetrahydro-2H-pyran-3-yl)octahydrocyclopenta[c]pyrrol-5-yl)-1H-indazole], the concentration for half-maximal inhibition (IC50) (in general, the concentration that gives 50% inhibition) against LRRK2 WT [1] turned out to be 4.34 µM; on LRRK2 WT [2], 0.247 µM.

On to `COC(=O)N1CCCC(N2C[C@H]3C[C@@H](c4cc5c(cnn5-c5cnn(C)c5)cc4C)C[C@H]3C2)C1` (mixture of isomers) [Compound 19, (rac)-methyl 3-((3aR,5r,6aS)-5-(5-methyl-1-(1-methyl-1H-pyrazol-4-yl)-1H-indazol-6-yl)hexahydrocyclopenta[c]pyrrol-2(1H)-yl)piperidine-1-carboxylate], for which the “LRRK2 WT IC50” value at LRRK2 WT [1] was “inactive”. The compound also returned a concentration for half-maximal inhibition (IC50) against LRRK2 WT [2] of 1.22 µM.

Take `Cc1cc2cnn(-c3cnn(C)c3)c2cc1C1=C[C@@H]2CN(C3CCOCC3)C[C@@H]2C1` (racemic) [Compound 3, (rac)-5-methyl-1-(1-methyl-1H-pyrazol-4-yl)-6-((3aR,6aS)-2-(tetrahydro-2H-pyran-4-yl)-1,2,3,3a,4,6a-hexahydrocyclopenta[c]pyrrol-5-yl)-1H-indazole]: the IC50 was greater than 10 µM against LRRK2 WT [1] and 0.716 µM against LRRK2 WT [2].

`Cc1cc2cnn(-c3cnn(C)c3)c2cc1[C@@H]1C[C@@H]2CN(C3CCCOC3)C[C@@H]2C1` (mixture of isomers) [Compound 12, (rac)-5-methyl-1-(1-methyl-1H-pyrazol-4-yl)-6-((3aR,5r,6aS)-2-(tetrahydro-2H-pyran-3-yl)octahydrocyclopenta[c]pyrrol-5-yl)-1H-indazole]: the “LRRK2 WT IC50” value on LRRK2 WT [1] was “inactive”. This compound yielded a concentration for half-maximal inhibition (IC50) on LRRK2 WT [2] of 0.642 µM.

Regarding `Cc1cc2cnn(-c3cnn(C)c3)c2cc1C1=C[C@@H]2CNC[C@@H]2C1` (racemic) [Compound 1, (rac)-6-((3aR,6aS)-1,2,3,3a,4,6a-hexahydrocyclopenta[c]pyrrol-5-yl)-5-methyl-1-(1-methyl-1H-pyrazol-4-yl)-1H-indazole], the values for the IC50 against LRRK2 WT [1] and on LRRK2 WT [2] were 7.58 µM and 0.113 µM, respectively.

On to `COC(=O)N1CCCC(N2C[C@H]3C[C@H](c4cc5c(cnn5-c5cnn(C)c5)cc4C)C[C@H]3C2)C1` (mixture of isomers) [Compound 18, (rac)-methyl 3-((3aR,5s,6aS)-5-(5-methyl-1-(1-methyl-1H-pyrazol-4-yl)-1H-indazol-6-yl)hexahydrocyclopenta[c]pyrrol-2(1H)-yl)piperidine-1-carboxylate], for which, at LRRK2 WT [1], the “LRRK2 WT IC50” value is “inactive”. Moreover, at LRRK2 WT [2], the IC50 is 1.53 µM.

As for `Cc1cc2cnn(-c3cnn(C)c3)c2cc1C1=C[C@@H]2CN(C(=O)OC(C)(C)C)C[C@@H]2C1` (racemic) [Compound 2, (rac)-tert-butyl (3aR,6aS)-5-(5-methyl-1-(1-methyl-1H-pyrazol-4-yl)-1H-indazol-6-yl)-3,3a,4,6a-tetrahydrocyclopenta[c] pyrrole-2(1H)-carboxylate], the “LRRK2 WT IC50” value at LRRK2 WT [1] was “inactive”. The compound also had an IC50 against LRRK2 WT [2] of 2.29 µM.

For `Cc1cc2cnn(-c3cnn(C)c3)c2cc1[C@@H]1C[C@@H]2CN(C(=O)c3snnc3C)C[C@@H]2C1` [Compound 10, (4-methyl-1,2,3-thiadiazol-5-yl)((3aR,5r,6aS)-5-(5-methyl-1-(1-methyl-1H-pyrazol-4-yl)-1H-indazol-6-yl)hexahydrocyclopenta[c]pyrrol-2(1H)-yl)methanone], the “LRRK2 WT IC50” value on LRRK2 WT [1] was “inactive”. The compound further came in with an IC50 against LRRK2 WT [2] of 0.643 µM.

Consider `Cc1cc2cnn(-c3cnn(C)c3)c2cc1[C@H]1C[C@@H]2CN(C(=O)c3snnc3C)C[C@@H]2C1` [Compound 9, (4-methyl-1,2,3-thiadiazol-5-yl)((3aR,5s,6aS)-5-(5-methyl-1-(1-methyl-1H-pyrazol-4-yl)-1H-indazol-6-yl)hexahydrocyclopenta[c]pyrrol-2(1H)-yl)methanone], for which the values for the IC50 against LRRK2 WT [1] and at LRRK2 WT [2] were 8.43 µM and 0.156 µM, respectively.
